This data set concerns HepG2 (hepatocellular carcinoma) cell line. The note with it: human.
The term IC50 denotes the concentration at which inhibition is half-maximal. Lower therefore signals higher potency. Molecule `CC(=O)O[C@H]1C[C@H]2[C@@H]([C@H](OC(C)=O)C[C@@H]3C[C@H](N)CC[C@@]32C)[C@@H]2CC[C@H]([C@H](C)CCCNCCNc3ccnc4cc(Cl)ccc34)[C@@]12C` [Compound 52, 24-N-[(7-Chloroquinoline-4-yl)amino]ethylamino-3α-amino-7α,12α-diacetoxy-5β-cholane] had an IC50 of 3.77 µM.
As to `CC(=O)O[C@H]1C[C@H]2[C@@H]([C@H](OC(C)=O)C[C@@H]3C[C@H](O)CC[C@@]32C)[C@@H]2CC[C@H]([C@H](C)CCCNCCNc3ccnc4cc(Cl)ccc34)[C@@]12C` [Compound 16, N-(3α-Hydroxy-7α,12α-diacetoxy-5β-cholan-24-yl)-N′-(7′-chloroquinolin-4′-yl)ethane-1,2-diamine], the “SI HepG2/D6” value is reported as 415/938/407, the “SI HepG2/TM91C235” value is 415/938/407 and the “SI HepG2/W2” value is 415/938/407.
As to `CC(=O)O[C@H]1C[C@H]2[C@@H]([C@H](OC(C)=O)C[C@@H]3C[C@H](N(C)C)CC[C@@]32C)[C@@H]2CC[C@H]([C@H](C)CCCNCCCNc3ccnc4cc(Cl)ccc34)[C@@]12C` [Compound 51], the “SI HepG2/D6” value is listed as 382/137/156, the “SI HepG2/TM91C235” value is reported as 382/137/156 and the “SI HepG2/W2” value was 382/137/156.
As for `CC(=O)O[C@H]1C[C@H]2[C@@H]([C@H](OC(C)=O)C[C@@H]3CC(=O)CC[C@@]32C)[C@@H]2CC[C@H]([C@H](C)CCCNCCCCNc3ccnc4cc(Cl)ccc34)[C@@]12C` [Compound 24], the “SI HepG2/D6” value is recorded as 7/6/6, the “SI HepG2/TM91C235” value is reported as 7/6/6 and the “SI HepG2/W2” value is listed as 7/6/6.
With `CC(=O)O[C@H]1C[C@H]2[C@@H]([C@H](OC(C)=O)C[C@@H]3C[C@H](O)CC[C@@]32C)[C@@H]2CC[C@H]([C@H](C)CCCNCCCCCCNc3ccnc4cc(Cl)ccc34)[C@@]12C` [Compound 19], the “SI HepG2/D6” value is reported as 60/56/50, the “SI HepG2/TM91C235” value is recorded as 60/56/50 and the “SI HepG2/W2” value was 60/56/50.
In the case of `CC(=O)O[C@H]1C[C@H]2[C@@H]([C@H](OC(C)=O)C[C@@H]3C[C@H](NS(C)(=O)=O)CC[C@@]32C)[C@@H]2CC[C@H]([C@H](C)CCCNCCCNc3ccnc4cc(Cl)ccc34)[C@@]12C` [Compound 39], the “SI HepG2/D6” value is given as 130/119/147, the “SI HepG2/TM91C235” value is on record as 130/119/147 and the “SI HepG2/W2” value is recorded as 130/119/147.
On to `CC(=O)O[C@H]1C[C@H]2[C@@H]([C@H](OC(C)=O)C[C@@H]3CC(=O)CC[C@@]32C)[C@@H]2CC[C@H]([C@H](C)CCCNCCNc3ccnc4cc(Cl)ccc34)[C@@]12C` [Compound 22, N-(3-Oxo-7α,12α-diacetoxy-5β-cholan-24-yl)-N′-(7′-chloroquinolin-4′-yl)ethane-1,2-diamine], for which the “SI HepG2/D6” value is on record as 299/571/109, the “SI HepG2/TM91C235” value is reported as 299/571/109 and the “SI HepG2/W2” value is given as 299/571/109.
For `CC(=O)O[C@H]1C[C@H]2[C@@H]([C@H](OC(C)=O)C[C@@H]3C[C@H](NS(C)(=O)=O)CC[C@@]32C)[C@@H]2CC[C@H]([C@H](C)CCCN(C)CCNc3ccnc4cc(Cl)ccc34)[C@@]12C` [Compound 42, 24-N-Methyl-N-[(7-chloroquinoline-4-yl)amino]ethylamino-3α-methanesulfonamide-7α,12α-diacetoxy-5β-cholane], the “SI HepG2/D6” value is reported as 1194/2707/2197, the “SI HepG2/TM91C235” value is listed as 1194/2707/2197 and the “SI HepG2/W2” value is 1194/2707/2197.
`CC(=O)O[C@H]1C[C@H]2[C@@H]([C@H](OC(C)=O)C[C@@H]3C[C@H](N)CC[C@@]32C)[C@@H]2CC[C@H]([C@H](C)CCCNCCCNc3ccnc4cc(Cl)ccc34)[C@@]12C` [Compound 53]: the “SI HepG2/D6” value was 54/75/43, the “SI HepG2/TM91C235” value was 54/75/43 and the “SI HepG2/W2” value is on record as 54/75/43.
`CC(=O)O[C@H]1C[C@H]2[C@@H]([C@H](OC(C)=O)C[C@@H]3C[C@H](NC(=O)OC(C)(C)C)CC[C@@]32C)[C@@H]2CC[C@H]([C@H](C)CCCNCCNc3ccnc4cc(Cl)ccc34)[C@@]12C` [Compound 40, 24-N-[(7-Chloroquinoline-4-yl)amino]ethylamino-3α-N′-tert-butylcarbamate-7α,12α-diacetoxy-5β-cholane]: the “SI HepG2/D6” value is given as 1743/531/464, the “SI HepG2/TM91C235” value was 1743/531/464 and the “SI HepG2/W2” value is recorded as 1743/531/464.
Take `CC(=O)N[C@@H]1CC[C@@]2(C)[C@@H](C1)C[C@@H](OC(C)=O)[C@@H]1[C@@H]2C[C@H](OC(C)=O)[C@]2(C)[C@@H]([C@H](C)CCCNCCCNc3ccnc4cc(Cl)ccc34)CC[C@@H]12` [Compound 37]: the “SI HepG2/D6” value is 55/114/51, the “SI HepG2/TM91C235” value is 55/114/51 and the “SI HepG2/W2” value is 55/114/51.
As for `CC(=O)O[C@H]1C[C@H]2[C@@H]([C@H](OC(C)=O)C[C@@H]3CC(=O)CC[C@@]32C)[C@@H]2CC[C@H]([C@H](C)CCCNCCCNc3ccnc4cc(Cl)ccc34)[C@@]12C` [Compound 23], the “SI HepG2/D6” value is 161/182/121, the “SI HepG2/TM91C235” value is given as 161/182/121 and the “SI HepG2/W2” value was 161/182/121.
As to `CC(=O)O[C@H]1C[C@H]2[C@@H]([C@H](OC(C)=O)C[C@@H]3CC(=O)CC[C@@]32C)[C@@H]2CC[C@H]([C@H](C)CCCNCCCCCCNc3ccnc4cc(Cl)ccc34)[C@@]12C` [Compound 25], the “SI HepG2/D6” value is given as 30/27/25, the “SI HepG2/TM91C235” value is recorded as 30/27/25 and the “SI HepG2/W2” value is 30/27/25.
With `CC(=O)O[C@H]1C[C@H]2[C@@H]([C@H](OC(C)=O)C[C@@H]3C[C@H](NS(C)(=O)=O)CC[C@@]32C)[C@@H]2CC[C@H]([C@H](C)CCCNCCNc3ccnc4cc(Cl)ccc34)[C@@]12C` [Compound 38], the “SI HepG2/D6” value is reported as 131/301/222, the “SI HepG2/TM91C235” value is 131/301/222 and the “SI HepG2/W2” value is reported as 131/301/222.
As to `CC(=O)N[C@@H]1CC[C@@]2(C)[C@@H](C1)C[C@@H](OC(C)=O)[C@@H]1[C@@H]2C[C@H](OC(C)=O)[C@]2(C)[C@@H]([C@H](C)CCCNCCNc3ccnc4cc(Cl)ccc34)CC[C@@H]12` [Compound 36, 24-N-[(7-Chloroquinoline-4-yl)amino]ethylamino-3α-acetamido-7α,12α-diacetoxy-5β-cholane], the “SI HepG2/D6” value is recorded as 126/116/126, the “SI HepG2/TM91C235” value is on record as 126/116/126 and the “SI HepG2/W2” value was 126/116/126.
`CC(=O)O[C@@H]1CC[C@@]2(C)[C@@H](C1)C[C@@H](OC(C)=O)[C@@H]1[C@@H]2C[C@H](OC(C)=O)[C@]2(C)[C@@H]([C@H](C)CCCNCCCCNc3ccnc4cc(Cl)ccc34)CC[C@@H]12` [Compound 14]: the “SI HepG2/D6” value was 107/55/47, the “SI HepG2/TM91C235” value was 107/55/47 and the “SI HepG2/W2” value is reported as 107/55/47.

(Values after article PMC4032193 (Journal of Medicinal Chemistry, 2014).)
